“Also recorded” adds a separate entry of the source.
System: α-tubulin deacetylation
Assay: acetylated α-tubulin in cells (AcTubulin cytoblot, immunofluorescence, Western blot)
Type: cell-based, human
Conditions: for effect on tubulin deacetylation / α-tubulin acetylation in cells: A549 (also BS-C-1) cells, tubacin/JCWII114, niltubacin/JCWII153 2 μM, TSA 100 nM-4 μM, library ~2-5 μM, 18 h
Protocol: A549 cells were seeded at a density of 4,000 cells/50 μl in DMEM+ in white tissue culture-treated 384-well plates (Nalge Nunc) using a Multidrop 384 liquid dispenser (Labsystems). Library small molecules were pinned twice (100-150 nl/pin) from ˜1 mM stock solutions (DMSO) and incubated for 18 hours. For the ITSA1+AcTubulin assay, ITSA1 (50 μM) was added four hours after pin-transfer of library molecules. Media was aspirated with a 16-channel wand. For the acetylated α-tubulin cytoblot (AcTubulin), 40 μl/well of fixation solution (3.7% formaldehyde (1:10 from 37% stock) in Tris-buffered saline (TBS, 0.15 M NaCl, 0.02 M Tris-Cl, pH 7.4) was added and plates incubated for twenty minutes at room temperature. After aspiration, 30 μl 100% methanol (−20° C.) was added and incubated for five minutes at room temperature. After aspirating and washing three times with 90 μl of antibody dilution buffer (ADB, TBS/2% bovine serum albumin, 0.1% TritonX-100) the wells were blocked for twenty minutes in ADB. After aspirating, 20 μl/well of ADB containing anti-acetylated α-tubulin antibody (mouse; 1:1000) and anti-mouse IgG horseradish peroxidase (HRP)-conjugated antibody (1:750) was added and incubated overnight (4° C.). For the anti-acetyl lysine cytoblot (AcLysine), 40 μl/well of fixation solution (95% ethanol/5% acetic acid, −20° C.) was added and plates incubated for five minutes at room temperature. Wells were aspirated, washed, and blocked in ADB as for the AcTubulin protocol. After aspirating, 20 μl/well of ADB containing anti-acetylated lysine (rabbit; 1:375) and anti-rabbit IgG-HRP conjugated antibody (1:750) was added and incubated overnight (4° C.). For the anti-acetylated histone H3 (AcHistH3) and anti-acetylated histone H4 (AcHistH4) cytoblots, cells were fixed, washed, and blocked in ADB as for the AcLysine cytoblot. After aspirating, 20 μl/well of ADB containing anti-acetylated histone H3 antibody (rabbit, 1:500) or anti-acetylated histone H4 antibody (rabbit, 1:500) was added and incubated for two hours at room temperature. Wells were aspirated and washed twice with 80 μl of ADB. After aspirating, 20 μl/well of ADB containing anti-rabbit IgG-HRP conjugated antibody (1:1000) was added and incubated for two hours (room temperature). For the AcTubulin and AcLysine assays, plates were washed three times with TBS before adding 20 μl/well of enhanced chemiluminescent (ECL) mixture. For the AcHistH3 and AcHistH4 assays, plates were washed three times with 80 μl TBS with 1% Triton X-100 and once with 80 μl TBS before adding 20 μl/well of ECL mixture. Plates were read on an Analyst plate reader (LJL Biosystems) with an integration time of 0.1 seconds.
1,3-dioxanes from single polystyrene macrobeads were prepared as 1-2 mM stock solutions in DMSO as described [Hubbert, C., Guardiola, A., Shao, R., Kawaguchi, Y., Ito, A., Nixon, A., Yoshida, M., Wang, X. F., and Yao, T. P. (2002). HDAC6 is a microtubule-associated deacetylase. Nature 417, 455-458]. Bead decoding and structure determination were as described [See for example, Hubbert, C., Guardiola, A., Shao, R., Kawaguchi, Y., Ito, A., Nixon, A., Yoshida, M., Wang, X. F., and Yao, T. P. (2002). HDAC6 is a microtubule-associated deacetylase. Nature 417, 455-458; and Piperno, G., LeDizet, M., and Chang, X. J. (1987). Microtubules containing acetylated alpha-tubulin in mammalian cells in culture. J. Cell Biol. 104, 289-302]. Small molecules (˜2-5 μM) of interest were retested using a sample from the plate of stock solutions by fluorescence microscopy and comparison to the effects of trichostatin (300 nM to 1 μM).
A549 cells were seeded at a density of 50,000/200 μl in DMEM+ on the surface of glass coverslips on top of Parafilm in a 10 cm dish and allowed to attach overnight. For detection of acetylated α-tubulin, cells were permeabilized and fixed with 100 mM K-PIPES, pH 6.8, 10 mM EGTA, 1 mM MgCl2, 0.2% triton X-100, 0.2% glutaraldehyde for fifteen minutes. […]

| SMILES | effect on tubulin deacetylation / α-tubulin acetylation in cells | effect on tubulin deacetylation / α-tubulin acetylation in cells (listed as 415 N3) | effect on tubulin deacetylation / α-tubulin acetylation in cells (listed as JCWII114) | concentration at which α-tubulin acetylation is increased (A549 cells, 4 h, data not shown) [nM] |
| --- | --- | --- | --- | --- |
| O=C(CCCCCCC(=O)Nc1ccc([C@@H]2OC(c3ccc(CO)cc3)C[C@H](CSc3nc(-c4ccccc4)c(-c4ccccc4)o3)O2)cc1)NO (some centres unmarked) [tubacin] | Increased acetylated α-tubulin induced by tubacin; also recorded: Reversibility of tubacin-induced (2 μM; 5 h) α-tubulin acetylation; also recorded: strongly increased α-tubulin acetylation levels; also recorded: potent (FIG. 41E), selective (FIG. 41F; FIG. 46A), and reversible (FIG. 46B) inhibitor of α-tubulin deacetylation; also recorded: always increased α-tubulin acetylation levels | strongly increased α-tubulin acetylation | potently and selectively inhibited tubulin deacetylation | ≥ 125 |
| CC(/C=C/C(=O)NO)=C\[C@@H](C)C(=O)c1ccc(N(C)C)cc1 [TSA, trichostatin A, reference compound] | an inhibitor of both α-tubulin and histone deacetylation; also recorded: Increased α-tubulin acetylation upon TSA (4 μM) treatment (24 h) | – | – | – |

— patent publication US8178579B2, “Dioxanes and uses thereof” (President and Fellows of Harvard College, priority 2001, dated 2012)
